Test results: the supplement of paper PMC12592484

Tests used:
Assay in all cases: drug sensitivity score (DSS2, normalised partial AUC of dose-response, 72 h CellTiter-Glo viability) (DSS (dimensionless)); higher = more sensitive (stronger growth inhibition / cytotoxicity); extreme values may be limits of the assay
[1] = tested on: CAF#5 (primary prostate cancer-associated fibroblasts of myCAF-like type)
Summary of the method: (§1)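 Viability of low-passage primary prostate cancer-associated fibroblasts, PF179T, WPMY-1, LNCaP and 22Rv1 cells was read by CellTiter-Glo 2.0 luminescence 72 h after seeding onto compounds pre-dispensed in 384-well plates at five doses over a 10,000-fold range. Readings were scaled between vehicle and positive-control wells. Sensitivity is reported as a drug sensitivity score from BREEZE, namely a partial area under the fitted logistic curve divided by the log of its upper asymptote, where higher means more sensitive.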

[2] = tested on: CAF#6 (primary prostate cancer-associated fibroblasts of iCAF-like type)
Summary of the method: as §1

[3] = tested on: CAF#2 (primary prostate cancer-associated fibroblasts of iCAF-like type)
Summary of the method: as §1

[4] = tested on: CAF#4 (primary prostate cancer-associated fibroblasts of iCAF-like type)
Summary of the method: as §1

[5] = tested on: WPMY-1
Summary of the method: as §1

[6] = tested on: 22Rv1
Summary of the method: as §1

[7] = tested on: PF179T
Summary of the method: as §1

[8] = tested on: CAF#3 (primary prostate cancer-associated fibroblasts of myCAF-like type)
Summary of the method: as §1

[9] = tested on: CAF#7 (primary prostate cancer-associated fibroblasts of myCAF-like type)
Summary of the method: as §1

[10] = tested on: LNCAP
Summary of the method: as §1

[11] = tested on: CAF#1 (primary prostate cancer-associated fibroblasts of myCAF-like type)
Summary of the method: as §1

Structure (SMILES) | drug sensitivity score [1] | drug sensitivity score [2] | drug sensitivity score [3] | drug sensitivity score [4] | drug sensitivity score [5] | drug sensitivity score [6] | drug sensitivity score [7] | drug sensitivity score [8] | drug sensitivity score [9] | drug sensitivity score [10] | drug sensitivity score [11]
Cc1ccc(C(=O)N(CCCN)[C@@H](c2oc3cc(Cl)ccc3c(=O)c2Cc2ccccc2)C(C)C)cc1 (tested concentration range 0-100 nM) | 4.3 | 1.6 | 7.1 | 2.5 | 4 | 3.6 | 2.9 | 0.4 | 1.3 | 19.3 | 1.6
CC(C)C(=O)Nc1ccc([N+](=O)[O-])c(C(F)(F)F)c1 [Flutamide] (tested concentration range 1-10000 nM) | 0.5 | 0 | 2.8 | 4.8 | 0 | 0.6 | 0 | 0 | 0 | 1.1 | 0
COc1cc([C@@H]2c3cc4c(cc3[C@@H](O[C@@H]3O[C@@H]5CO[C@@H](c6cccs6)O[C@H]5[C@H](O)[C@H]3O)[C@H]3COC(=O)[C@H]23)OCO4)cc(OC)c1O [Teniposide] (tested concentration range 1-10000 nM) | 0 | 0 | 0 | 0 | 0 | 0 | 0 | 0 | 0 | 0 | 0
CCc1c(C(=O)C(N)=O)c2c(OCC(=O)O)cccc2n1Cc1ccccc1 [Varespladib] (tested concentration range 1-10000 nM) | 1.3 | 0 | 0 | 0 | 0 | 0 | 0 | 0 | 0 | 0 | 0
NCC(=O)Nc1ccc(-n2nc(C(F)(F)F)cc2-c2ccc3c(ccc4ccccc43)c2)cc1 (tested concentration range 2.5-25000 nM) | 0 | 0 | 0 | 0.8 | 4.4 | 0 | 0 | 0 | 0 | 1.4 | 0.7
O=C(Nc1cccc(NC(=O)c2cccc(O)c2O)c1)c1cccc(O)c1O [MST-312] (tested concentration range 1-10000 nM) | 13.5 | 10.5 | 15.3 | 12.9 | 10.2 | 10.3 | 10.7 | 8.9 | 11.6 | 15.6 | 12.8
Cc1noc2c1-c1ccccc1C(c1ccc(Cl)cc1)=N[C@H]2CC(N)=O [CPI-0610] (tested concentration range 1-10000 nM) | 4.1 | 4.5 | 6.5 | 1.4 | 7.9 | 9.2 | 4.1 | 8.4 | 1.8 | 13 | 7
CC(C)Oc1ccc(C(=O)N[C@H](CNC(=O)CN(C)C)Cc2ccc(-c3cn4cccc([C@H](C)O)c4n3)cc2)cc1Cl (tested concentration range 1-10000 nM) | 3 | 3.2 | 9.8 | 5.5 | 24.5 | 10.9 | 9 | 2.5 | 2.4 | 19.1 | 1.4
COCCNCc1ccc(-c2cc3nccc(Oc4ccc(NC(=O)C5(C(=O)Nc6ccc(F)cc6)CC5)cc4F)c3s2)nc1 [Sitravatinib] (tested concentration range 0.2-2500 nM) | 6.6 | 3.4 | 9.7 | 6.6 | 5.9 | 4.7 | 6.7 | 4.5 | 5.7 | 2.1 | 5.5
COCC1(CO)C(=O)C2CCN1CC2 (stereo not given) [Eprenetapopt] (tested concentration range 1-10000 nM) | 0.4 | 0 | 0 | 0 | 0 | 0 | 0 | 0 | 0.2 | 0 | 0.1
Cc1c(C(=O)Nc2ccc(N3C[C@@H](C)O[C@@H](C)C3)nc2)cccc1-c1ccc(OC(F)(F)F)cc1 [Sonidegib] (tested concentration range 1-10000 nM) | 1.5 | 0 | 1.7 | 3.2 | 0 | 2.2 | 0 | 0 | 0 | 4.9 | 0
CC[C@H](CC#N)OC(=O)N[C@@H](C)c1cccc(NC(=O)Nc2ccc(-c3cnco3)c(OC)c2)c1 [AVN944] (tested concentration range 1-10000 nM) | 11.4 | 11.4 | 16.1 | 11.4 | 19 | 18.7 | 14.9 | 8.5 | 12.1 | 18.1 | 8.5
O=C(Nc1ccc(OC(F)(F)Cl)cc1)c1cnc(N2CC[C@@H](O)C2)c(-c2cc[nH]n2)c1 [Asciminib] (tested concentration range 0.1-1000 nM) | 0 | 0 | 0 | 0 | 0 | 0 | 0 | 0 | 0 | 0 | 0.5
CCc1cc2c(cc1N1CCC(N3CCOCC3)CC1)C(C)(C)c1[nH]c3cc(C#N)ccc3c1C2=O [Alectinib] (tested concentration range 0.1-1000 nM) | 0.3 | 0 | 0.2 | 0 | 0 | 0.2 | 0 | 0 | 0 | 0.5 | 1
C[C@@H](NC(=O)c1ncnc(N)c1Cl)c1ncc(C(=O)Nc2cc(C(F)(F)F)c(Cl)cn2)s1 [TAK-580] (tested concentration range 1-10000 nM) | 0 | 0 | 0 | 2.3 | 0.5 | 0 | 0 | 0.5 | 0.3 | 0.2 | 0
CO[C@H]1C[C@@H]2CC[C@@H](C)[C@@](O)(O2)C(=O)C(=O)N2CCCC[C@H]2C(=O)O[C@H]([C@H](C)C[C@@H]2CC[C@@H](OCCO)[C@H](OC)C2)CC(=O)[C@H](C)/C=C(\C)[C@@H](O)[C@@H](OC)C(=O)[C@H](C)C[C@H](C)/C=C/C=C/C=C/1C [Everolimus] (tested concentration range 0-100 nM) | 9.7 | 8.2 | 8.2 | 6.1 | 5.4 | 11.6 | 6.3 | 7.2 | 10.8 | 14.1 | 11.5
CCc1cnn2c(NCc3ccc[n+]([O-])c3)cc(N3CCCC[C@H]3CCO)nc12 [Dinaciclib] (tested concentration range 0.1-1000 nM) | 18 | 14.2 | 18.2 | 13 | 18.9 | 21.5 | 10.6 | 12.3 | 15.9 | 27.6 | 18.5
NC1(C(=O)N[C@@H](CCO)c2ccc(Cl)cc2)CCN(c2nc[nH]c3nccc2-3)CC1 [Capivasertib] (tested concentration range 1-10000 nM) | 3.6 | 2.7 | 4.1 | 0.3 | 3 | 7.2 | 4.6 | 0 | 2.4 | 23.5 | 4.5
Cc1c(-c2ccc(N3CCc4cccc(C(=O)Nc5nc6ccccc6s5)c4C3)nc2C(=O)O)cnn1CC12CC3CC(CC(C3)C1)C2 (tested concentration range 0.1-1000 nM) | 0 | 4.2 | 0 | 3.1 | 0 | 0 | 0 | 0 | 0.4 | 4.4 | 0
O=C(O)CNC(=O)c1c(O)c2ccccc2n(Cc2ccccc2)c1=O [IOX-2] (tested concentration range 2.5-25000 nM) | 0 | 0 | 0 | 0 | 0 | 0 | 0 | 0 | 0 | 0 | 0
COc1cc(N2CCC(N3CCN(C)CC3)CC2)ccc1Nc1ncc(Cl)c(Nc2ccccc2P(C)(C)=O)n1 [Brigatinib] (tested concentration range 0.1-1000 nM) | 3.6 | 3.9 | 3.5 | 2.1 | 2.4 | 1.7 | 2.2 | 3.1 | 3 | 0 | 4
COc1cc2c(NC3CCN(C(C)C)CC3)nc(C3CCCCC3)nc2cc1OCCCN1CCCC1 [UNC0638] (tested concentration range 1-10000 nM) | 0 | 6.5 | 0 | 0 | 6.1 | 7.2 | 5.2 | 7.7 | 6.6 | 6 | 0
COc1cccc2c1c(O)c(C(=O)N(C)c1ccc(C(F)(F)F)cc1)c(=O)n2C [Tasquinimod] (tested concentration range 1-10000 nM) | 3.4 | 4.4 | 3.5 | 0 | 0 | 0 | 0.4 | 0 | 5.8 | 0 | 0.3
OC[C@H]1O[C@@H](n2cnc3c2N=CNC[C@H]3O)C[C@@H]1O [Pentostatin] (tested concentration range 1-10000 nM) | 0 | 0 | 0 | 0 | 0 | 0 | 0 | 0 | 0 | 0 | 0
CCCCC(=O)OCC(=O)[C@]1(O)Cc2c(O)c3c(c(O)c2[C@@H](O[C@H]2C[C@H](NC(=O)C(F)(F)F)[C@H](O)[C@H](C)O2)C1)C(=O)c1c(OC)cccc1C3=O [Valrubicin] (tested concentration range 0.5-5000 nM) | 8.4 | 9.4 | 9.3 | 4.9 | 14.9 | 14.3 | 9.6 | 8.7 | 11.4 | 20.6 | 8.6
